Test results taken from US12338203B2 (TAISHO PHARMACEUTICAL CO., LTD., priority 2019, dated 2025).

Target: T1, human LPAR1 (Homo sapiens, UniProt Q92633)
T1 construct: expressed in transfected cells
Assay: Test Example 1: antagonism against response of LPA-induced increase in intracellular Ca2+ concentration in RH7777 cells stably expressing human LPAR1
Type: cell-based
Conditions: RH7777 cells stably expressing human LPAR1; Fluo-4 fluorescence, FDSS6000; read-out: IC50 value (concentration producing 50% antagonism against response of LPA-induced increase in intracellular Ca2+ concentration) (converted)
In short: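 Ca2+ flux read at 540 nm emission (480 nm excitation) after LPA addition to human LPAR1-expressing RH7777 cells exposed to compound for 30 min, 37 °C, pH 7.4 HEPES-buffered HBSS. Response relative to no-compound control after basal subtraction; IC50 fitted from concentration–response.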

T1 sequence (Q92633 whole entry): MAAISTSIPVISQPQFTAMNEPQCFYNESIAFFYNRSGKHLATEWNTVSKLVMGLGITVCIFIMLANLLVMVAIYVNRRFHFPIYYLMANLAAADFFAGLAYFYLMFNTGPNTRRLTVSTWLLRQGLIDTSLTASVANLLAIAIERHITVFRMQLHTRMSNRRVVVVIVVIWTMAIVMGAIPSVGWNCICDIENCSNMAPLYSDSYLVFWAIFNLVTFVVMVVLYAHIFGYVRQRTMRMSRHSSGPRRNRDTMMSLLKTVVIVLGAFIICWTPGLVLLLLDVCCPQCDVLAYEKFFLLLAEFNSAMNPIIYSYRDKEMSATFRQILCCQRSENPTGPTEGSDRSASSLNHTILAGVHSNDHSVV

IC50	SMILES
7.22 nM	CCOc1cc(C(C)N(CCCCc2ccccc2)C(=O)NC2(C(=O)O)CC(F)(F)C2)c2ccn(CC)c2c1 (stereo not shown) [Example 5-95]
26.6 nM	CCOc1cc(C(C)N(CCCCc2ccccc2)C(=O)NC2(C(=O)O)CC(F)(F)C2)cc(OCC)c1S(C)(=O)=O (stereo not shown) [Example 1-57]
1.24 nM	CCOc1c(C(C)=O)ccc([C@@H](C)N(CCCCc2ccccc2)C(=O)NC2(C(=O)O)CC(F)(F)C2)c1C [Example 1-75]
352 nM	CCOc1cc([C@@H](C)N(CCCCc2ccccc2)C(=O)NC(C(=O)O)C(C)O)cc(OCC)c1C (stereo partly shown) [Example 1-11]
25.2 nM	CCOc1cc(C(C)N(CCCc2cccc(F)c2)C(=O)NC2(C(=O)O)CC(F)(F)C2)cc(OCC)c1C (stereo not shown) [Example 4-7]
2.24 nM	CCOc1cc([C@@H](C)N(CCCCc2ccccc2)C(=O)NC2(C(=O)O)COC2)cc(OCC)c1C(C)=O [Example 1-149, 3-({[(1R)-1-(4-Acetyl-3,5-Diethoxyphenyl)Ethyl](4-Phenylbutyl) Carbamoyl}Amino) Oxetane-3-Carboxylic Acid]
2.53 nM	CCOc1cc([C@@H](C)N(CCCCc2ccccc2)C(=O)NC2(C(=O)O)CC(OC)C2)cc(OCC)c1C(C)=O (stereo partly drawn) [Example 1-85, 1-({[(1R)-1-(4-Acetyl-3,5-Diethoxyphenyl)Ethyl](4-Phenylbutyl) Carbamoyl}Amino)-3-Methoxycyclobutane-1-Carboxylic Acid]
8.93 nM	CCOc1cc(C(C)N(CCCCc2ccccc2)C(=O)NC2(C(=O)O)CC(F)(F)C2)cc(OCC)c1C(C)(C)O (stereo not shown) [Example 1-32]
3.12 nM	CCOc1c(C(C)O)ccc([C@@H](C)N(CCCCc2ccccc2)C(=O)NC2(C(=O)O)CC(F)(F)C2)c1C (stereo partly drawn) [Example 1-77, 1-{[{(1R)-1-[3-Ethoxy-4-(1-Hydroxyethyl)-2-Methylphenyl]Ethyl}(4-Phenylbutyl) Carbamoyl]Amino}-3,3-Difluorocyclobutane-1-Carboxylic Acid]
9.98 nM	CCOc1cc(C(C)N(CCCCc2ccccc2)C(=O)NC2CC(C(=O)O)C2)cc(OCC)c1C(C)=O (stereo not shown) [Example 1-129]
3.17 nM	CCOc1cc([C@@H](C)N(CCCCc2ccccc2)C(=O)NC(C)(C)C(=O)O)cc(OCC)c1C(C)=O [Example 1-1, N-{[(1R)-1-(4-Acetyl-3,5-Diethoxyphenyl)Ethyl](4-Phenylbutyl) Carbamoyl}-2-Methylalanine]
11.6 nM	CCOc1cc(C(C)N(CCCCc2ccc(F)cc2)C(=O)NC2(C(=O)O)CC(F)(F)C2)cc(OCC)c1C (stereo not shown) [Example 4-9]
53.6 nM	CCOc1cc([C@@H](C)N(CCCCc2ccccc2)C(=O)NC2(C(=O)O)CCCCCC2)cc(OCC)c1C [Example 1-119]
4.19 nM	CCNc1cc(C(C)N(CCCCc2ccccc2)C(=O)NC2(C(=O)O)CC(F)(F)C2)cc(OCC)c1C#N (stereo not shown) [Example 5-114]
11 nM	CCOc1cc(C(C)N(CCCCc2ccccc2)C(=O)NC2(C(=O)O)CC(F)(F)C2)cc(OCC)n1 (stereo not shown) [Example 5-86]
3.68 nM	CCOc1cc(C(C)N(CCCCc2ccccc2)C(=O)NC2(C(=O)O)CC(F)(F)C2)cc(OCC)c1CO (stereo not shown) [Example 1-50, 1-{[{1-[3,5-Diethoxy-4-(Hydroxymethyl)Phenyl]Ethyl}(4-Phenylbutyl) Carbamoyl]Amino}-3,3-Difluorocyclobutane-1-Carboxylic Acid]
1.47 nM	CCOc1cc([C@@H](C)N(CCCCc2ccccc2)C(=O)NC2(C(=O)O)CCC2)cc(OCC)c1C(C)O (single isomer, unassigned) [Example 1-22]
5.04 nM	CCCOc1cc(C(C)N(CCCCc2ccccc2)C(=O)NC2(C(=O)O)CC(F)(F)C2)cc(OCC)c1C (stereo not shown) [Example 1-69]
2.56 nM	CCOc1cc([C@@H](C)N(CCCCc2ccccc2)C(=O)NC2(C(=O)O)CN(C(C)=O)C2)cc(OCC)c1C [Example 1-159, 1-Acetyl-3-({[(1R)-1-(3,5-Diethoxy-4-Methylphenyl)Ethyl](4-Phenylbutyl) Carbamoyl}Amino) Azetidine-3-Carboxylic Acid]
18.7 nM	CCOc1cc(C(C)N(CCCCc2ccccc2)C(=O)NC2(C(=O)O)CCCC2)cc(OCC)c1C (stereo not shown) [Example 1-112]
7.13 nM	COc1cc(Br)cc(C(C)N(CCCCc2ccccc2)C(=O)NC2(C(=O)O)CC(F)(F)C2)c1 (stereo not shown) [Example 5-22]
1.75 nM	CCOc1cc([C@@H](C)N(CCCCc2ccccc2)C(=O)NC2(C(=O)O)CC(F)(F)C2)cc(OCC)c1C(C)=O [Example 1-30, 1-({[(1R)-1-(4-Acetyl-3,5-Diethoxyphenyl)Ethyl](4-Phenylbutyl) Carbamoyl}Amino)-3,3-Difluorocyclobutane-1-Carboxylic Acid]
0.944 nM	CCOc1cc(C(C)N(CCCCc2ccccc2)C(=O)NC2(C(=O)O)CC(F)(F)C2)c(C)cc1C(C)=O (stereo not shown) [Example 1-81]
1.31 nM	CCOc1cc([C@@H](C)N(CCOCc2ccccc2)C(=O)NC2(C(=O)O)CC(F)(F)C2)cc(OCC)c1C(C)O (stereo partly shown) [Example 4-104]

The remaining lines, values behind:

SMILES	IC50
CCOc1c(C(C)=O)ccc([C@@H](C)N(CCO[C@H](C)c2ccccc2)C(=O)NC2(C(=O)O)CCC2)c1C [Example 4-148]	3.22 nM
CCOc1cc([C@@H](C)N(CCOCc2ccccc2)C(=O)NC2(C(=O)O)CC(OC)C2)cc(OCC)c1C(C)=O (stereo partly shown) [Example 4-108]	3.6 nM
CCOc1cc(C(C)N(CCCCc2ccccc2)C(=O)NC2CCC(C(=O)O)C2)cc(OCC)c1C(C)=O (stereo not shown) [Example 1-139]	3.09 nM
CCOc1cc(C(C)N(CCOCc2ccccc2)C(=O)NC2(C(=O)O)CCC2)c(C)c(OCC)c1C (stereo not shown) [Example 5-193]	2 nM
CCOC1CC(NC(=O)N(CCOCc2ccccc2)[C@H](C)c2cc(OC)c(C(C)=O)c(OC)c2)(C(=O)O)C1 (stereo partly shown) [Example 5-125]	10.9 nM
CCOc1cc([C@@H](C)N(CCO[C@@H](C)c2ccccc2)C(=O)NC2(C(=O)O)CC(OC)C2)c(Cl)c(OCC)c1C(C)O (single isomer, unassigned) [Example 5-57]	4.08 nM
CCOc1c(C(C)=O)ccc([C@@H](C)N(CCCC(F)(F)c2ccccc2)C(=O)NC2(C(=O)O)CC(F)(F)C2)c1C [Example 4-60]	2.9 nM
CCOc1cc([C@@H](C)N(CCO[C@@H](C)c2ccccc2)C(=O)N[C@]2(C(=O)O)C[C@@H](OCC)C2)c(C)c(OCC)c1C(C)=O [Example 5-118, Trans-1-[([(1R)-1-(4-Acetyl-3,5-Diethoxy-2-Methylphenyl)Ethyl]{2-[(1S)-1-Phenylethoxy]Ethyl}Carbamoyl)Amino]-3-Ethoxycyclobutane-1-Carboxylic Acid]	1.86 nM
CCOc1cc([C@@H](C)N(CCCCc2ccccc2)C(=O)NC2CCC(C(=O)O)C2)cc(OCC)c1C (stereo partly shown) [Example 1-142]	49.2 nM
CCOc1cc([C@@H](C)N(CCOCc2ccccc2)C(=O)N[C@]2(C(=O)O)C[C@@H](OC)C2)c(Cl)c(OCC)c1C(C)=O [Example 5-36]	1.62 nM
COc1cc(C(C)N(CCO[C@@H](C)c2ccccc2)C(=O)NC2(C(=O)O)CC(F)(F)C2)c(C)c(OC)c1C (stereo partly shown) [Example 5-151]	4.46 nM
COc1cc([C@@H](C)N(CCO[C@@H](C)c2ccccc2)C(=O)NC2(C(=O)O)CC(OC)C2)c(Cl)c(OC)c1C(C)=O (stereo partly shown) [Example 5-124]	10.8 nM
CCC(c1cc(OC)c(C)c(OC)c1)N(CCCCc1ccccc1)C(=O)NC1(C(=O)O)CC(F)(F)C1 (stereo not shown) [Example 3-3]	30.1 nM
CCOc1cc([C@@H](C)N(CCO[C@@H](C)c2ccccc2)C(=O)NC2(C(=O)O)CCOCC2)cc(OCC)c1C(C)O (single isomer, unassigned) [Example 4-144]	8.19 nM
CCOc1c(C(C)=O)ccc([C@@H](C)N(CCCC(F)(F)c2ccccc2)C(=O)N[C@]2(C(=O)O)C[C@@H](OC)C2)c1C [Example 4-63]	3.94 nM
CCOc1cc(C(C)N(CCCCc2ccccc2)C(=O)NC2(C(=O)NS(=O)(=O)N(C)C)CCCC2)cc(OCC)c1C (stereo not shown) [Example 7-5, 1-({[1-(3,5-Diethoxy-4-Methylphenyl)Ethyl](4-Phenylbutyl) Carbamoyl}Amino)-N-(Dimethylsulfamoyl)Cyclopentane-1-Carboxamide]	272 nM
CCOc1cc(C(C)N(CCO[C@@H](C)c2ccccc2)C(=O)NC2(C(=O)O)CC(OCC)C2)c(Cl)c(OCC)c1C(C)=O (stereo partly shown) [Example 5-223]	2.08 nM
COc1cc(C(C)N(CCOC(C)c2ccccc2)C(=O)NC2(C(=O)O)CC(OC)C2)cc(OC)c1C1CC1 (stereo not shown) [Example 5-157]	3.54 nM
CCOc1cc([C@@H](C)N(CCO[C@@H](C)c2ccccc2)C(=O)N[C@]2(C(=O)O)C[C@H](OC)C2)c(C)c(OCC)c1C(C)=O [Example 5-72]	3.62 nM
CCOc1cc([C@@H](C)N(CCOCc2ccccc2)C(=O)NC2(C(=O)O)CCOCC2)c(Cl)c(OCC)c1C(C)=O [Example 5-39]	0.516 nM
CCOc1cc([C@@H](C)N(CCOCc2ccccc2)C(=O)NC2(C(=O)O)CC(F)(F)C2)c(Cl)c(OCC)c1C(C)=O [Example 5-38]	0.468 nM
CCOc1cc([C@@H](C)N(CCCCc2ccccc2)C(=O)N[C@]2(C(=O)O)C[C@H](OC)C2)c(Cl)c(OCC)c1C(C)=O [Example 5-49]	3.88 nM
CCOc1cc(C(C)N(CCOCc2ccccc2)C(=O)NC2(C(=O)O)CCOCC2)c(Cl)c(OCC)c1C1CC1 (stereo not shown) [Example 5-225]	0.809 nM
COc1cc(C(C)N(CCOC(C)c2ccccc2)C(=O)N[C@]2(C(=O)O)C[C@@H](OC)C2)c(C)c(OC)c1C (stereo partly shown) [Example 5-160]	4.55 nM
CCOc1cc([C@@H](C)N(CCO[C@@H](C)c2ccccc2)C(=O)N[C@]2(C(=O)O)C[C@@H](OC)C2)c(C)c(OCC)c1C [Example 5-79]	1.21 nM
CCOc1cc([C@@H](C)N(CCCC(F)(F)c2ccccc2)C(=O)NC2(C(=O)O)CCOCC2)cc(OCC)c1C1CC1 [Example 4-75]	0.992 nM
CCOc1c(C(C)=O)ccc([C@@H](C)N(CCO[C@@H](C)c2ccccc2)C(=O)NC2(C(=O)O)CC(OC)C2)c1C (stereo partly shown) [Example 4-131]	10.3 nM
CCOc1cc(C(C)N(CCCCc2ccccc2)C(=O)NC2(c3nn[nH]n3)CCC2)cc(OCC)c1C(C)=O (stereo not shown) [Example 10-6]	1.88 nM
